Patent US9994541B2, “Nitroalkene trolox derivatives and methods of use thereof in the treatment and prevention of inflammation related conditions” (Institut Pasteur de Montevideo, priority 2016, dated 2018)

Experiments:
RAW 264.7 cells = test: Cytotoxicity in RAW 264.7 cells (MTT assay); type: cell-based, murine; settings: Mus musculus, RAW264.7, 24 h treatment, read-out: IC50 (cell viability)
Protocol: FIG. 8 NATx0 cell cytotoxicity was evaluated in RAW 264.7 cells at 1, 5, 10, 50 and 100 μM in DMSO. Cells were treated for 24 h with NATx0 and then MTT assay was performed. The absorbance at 570 nm was measured for each condition by triplicate. The % cell liability was calculated using control group (DMSO, without treatment). The half maximal inhibitory concentration (IC50) was calculated after % cell viability was plotted against the concentration of NATx0 and fitted to an exponential function using OriginLab software (version 8.0).

NF-κB/p65 = test: LPS-induced NF-κB/p65 nuclear translocation in THP-1 macrophages (immunofluorescence); type: cell-based; settings: 10 uM, 2 hs before LPS (1 ug/mL)
Excerpt: Nuclear factor kappa B (NF-κB) represents a family of pro-inflammatory transcription factors, present in all eukaryotic cells, which regulate inducible expression of wide ranging genes involved in immune responses and cell-cycle regulation. Activation of NF-κB is accompanied by nuclear translocation of NF-κB. […] Specifically, FIG. 11 illustrates immunofluorescence and epifluorescence microscopy analysis showing the effect of NATx0 on LPS-induced NF-κB/p65 subcellular localization in THP-1 macrophages.

serum levels of IL-1β = test: LPS-induced inflammatory response in C57BL/6 mice, serum IL-1β by ELISA; type: in vivo; settings: 20 mg/kg i.p. 1 hour before 10 mg/kg LPS i.p., 2 hours after LPS
Protocol: In vivo testing was carried out in C57BL/6 mice. The mice were injected intraperitoneally (“i.p.”) with 20 mg/kg NATx0 or a control (DMSO) 1 hour before i.p. injection of 10 mg/kg LPS Escherichia coli 055:B5 (Sigma-Aldrich). After 2 hours the mice were killed, and serum levels of IL-1β were measured by ELISA to determine inflammatory response.

[1] = Michael adduct formation with glutathione (UV-visible spectra, stopped-flow kinetics); type: physicochemical; settings: 25 μM compound, absorbance at 260 nm, 25° C.
Protocol: In FIG. 3, 130 μM NATx0 was incubated with 2 mM Glutathione (Sigma) in 100 mM pH 7 phosphate buffer. UV-visible spectra was acquired by a Varian Cary 50 Bio. Scans were taken every min up to 15 min.
(§1) FIG. 4 illustrates a second order rate constant of the reaction between NATx0 and GSH. Stopped-flow kinetic measurements were performed using a Rx 2000 stopped flow analyzer (Applied Photophysics). Mixutres of 150 μL NATx0 (25 μM) and solutions of BME at 0.54 mM, 1.09 mM, 1.64 mM, 2.18 mM, and 2.73 mM concentrations.

GCLM = test: Western blot of GCLM protein expression in Raw 264.7 macrophages; type: cell-based, murine; settings: Raw 264.7 cells, 5 μM, 18 hours
Protocol: (§2) Raw 264.7 cells, a murine macrophage cell line catalog no. TIB-71TM (ATCC, Manassas, Va.), were treated with NATx0 or NATx5 (5 μM) for 18 hours. Cells were lysed, and total protein concentration was measured with Pierce BCA assay (Thermo Fisher Scientific, Rockford, Ill.). For electrophoresis, 30 μg of protein was used in each line. The proteins were electrophoresed on a Tris/glycine SDS-polyacrylamide gradient gel (10-15%) and transferred to nitrocellulose membrane. The primary antibodies used for detection was rabbit polyclonal anti-HO-1 or anti-GCLM (Abcam, Cambridge, Mass.). Blots were visualized using horseradish peroxidase-conjugated secondary antibodies and ECL Plus detection system (GE Healthcare, Little Chalfont, UK). Blots were detected with a scanner. Protein expression was quantified with ImageQuant TL7.0 software (GE Healthcare, Little Chalfont, UK).

NLRP3 inflammasome = NLRP3 inflammasome activation in THP-1 macrophages, IL-1β by ELISA; type: cell-based
Protocol: (§3) FIGS. 6A and 6B illustrate the effect of NATx0 on cell viability and NLRP3 inflammasome activation. THP-1 cells were differentiated into macrophages (PMA 200 nM, 48 hours). […] The cells were treated with NATx0 at 0.5 μM, 1.0 μM, 2.5 μM, 5.0 μM, 10 μM and 20 μM concentrations together with the first signal or the second signal. Cell viability was measured by MTT assay. Supernatant was stored.
In FIGS. 7A and 7B, supernatant stored from the previously described experiment were measured for IL-1β by ELISA.
(§4) At the first signal, we only observed a full inhibition of the inflammasome at 20 μM.

HO-1 = test: Western blot of HO-1 protein expression in Raw 264.7 macrophages; type: cell-based, murine; settings: Raw 264.7 cells, 5 μM, 18 hours
Protocol: as §2

[2] = Michael adduct formation with β-mercaptoethanol (UV-visible spectra, stopped-flow kinetics); type: physicochemical; settings: 25 μM compound, BME 0.54-2.73 mM, absorbance at 260 nm, 25° C.
Protocol: UV-visible spectra was acquired by a Varian Cary 50 Bio. Scans were taken every min up to 15 min.
as §1, with “In FIG.” for “FIG.”, “2, it is shown that” for “4 illustrates a second order rate constant of”, “BME was determined to be a second order rate constant.” for “GSH.”

THP-1 cells = test: Cell viability (MTT) of THP-1 macrophages stimulated with LPS and ATP; type: cell-based; settings: THP-1 macrophages activated by LPS or ATP, compound 0.5-20 μM together with first or second signal
Protocol: as §3, §4

[3] = Stability in polyethylene glycol 300-400 at 37° C.; type: physicochemical; settings: PEG 300 to PEG 400, 37° C., two weeks, RP-HPLC
Protocol: FIG. 10 presents the incubation of NATx0 incubated in PEG 300 to PEG 400 at 37° C. for two weeks. At each time point, an aliquot was extracted with methanol and analyzed by reverse phase chromatography as before. After two weeks in 37° C. in PEG, 50% of the initial concentration of NATx0 was recovered.

| Compound | IC50 (RAW 264.7 cells) | LPS-induced NF-κB/p65 nuclear translocation (NF-κB/p65) | inflammatory response (serum IL-1β) (serum levels of IL-1β) | second order rate constant of the reaction with GSH [1] | GCLM protein expression (GCLM) | concentration giving full inhibition of the inflammasome (NLRP3 inflammasome; compound applied together with the first signal (LPS 250 ng/mL, 3 hours)) | concentration at which NLRP3 inflammasome activation is already inhibited (NLRP3 inflammasome; compound applied together with the second inflammasome-activating signal) | inhibition of inflammasome activation (IL-1β) (NLRP3 inflammasome; compound applied together with the second signal (ATP 5 mM, 45 minutes), 0.5-20 μM) | HO-1 protein expression (HO-1) | second order rate constant of the reaction with BME [2] | cell mortality (cell viability by MTT) (THP-1 cells) | initial concentration recovered [3] |
| --- | --- | --- | --- | --- | --- | --- | --- | --- | --- | --- | --- | --- |
| Cc1c(C)c2c(c(C)c1O)CCC(C)(/C=C/[N+](=O)[O-])O2 (racemic) [NATx0, (±)-2,5,7,8-tetramethyl-2-[(E)-2-nitrovinyl]chroman-6-ol] | 24 µM | no change from the negative control | did not increase | 23.45 M⁻¹ s⁻¹ | induced the expression | 20 µM | 5 µM | inhibited inflammasome activation in dose dependent manner | induced the expression | 23.45 M⁻¹ s⁻¹ | does not induce an increase in cell mortality | 50% |
| CCC/C(=C\C1(C)CCc2c(C)c(O)c(C)c(C)c2O1)[N+](=O)[O-] (racemic) [NATx5, (±)-2,5,7,8-tetramethyl-2-[(E)-2-nitropent-1-en-1-yl]chroman-6-ol] | – | – | – | – | induced the expression | – | – | – | induced the expression | – | – | – |
